≈ marks a conversion by molar mass, not a printed value.
Assays:
[1] = recent reports; cited from earlier work
animal enzymes = settings: more recent studies; cited from earlier work
[2] = in vivo; cited from earlier work
[3] = compared to digitoxin; cited from earlier work
[4] = from the gastrointestinal tract, cited from earlier work
physchem = settings: 0.01 n hcl
[5] = 25° C.; cited from earlier work

Row | Structure (SMILES) | demethylation in man [1] | resistance to degradation by animal enzymes (animal enzymes) | closeness of therapeutic and toxic dose [2] | duration of action [3] | onset of action [3] | completeness of absorption vs digitoxin ([4]; compared to digitoxin) | extent of absorption [4] | solubility (physchem) [mg/mL] | solubility per ml of 0.1 N HCl [5]
1 | CO[C@H]1[C@@H](O)C[C@H](O[C@H]2[C@@H](O)C[C@H](O[C@H]3[C@@H](O)C[C@H](O[C@H]4CC[C@@]5(C)[C@H](CC[C@@H]6[C@@H]5C[C@@H](O)[C@]5(C)[C@@H](C7=CC(=O)OC7)CC[C@]65O)C4)O[C@@H]3C)O[C@@H]2C)O[C@@H]1C [4'"-methyldigoxin] | actually demethylated in man | very resistant to degradation by animal enzymes | – | – | – | – | – | – | –
2 | C[C@H]1O[C@@H](O[C@H]2[C@@H](O)C[C@H](O[C@H]3[C@@H](O)C[C@H](O[C@H]4CC[C@@]5(C)[C@H](CC[C@@H]6[C@@H]5C[C@@H](O)[C@]5(C)[C@@H](C7=CC(=O)OC7)CC[C@]65O)C4)O[C@@H]3C)O[C@@H]2C)C[C@H](O)[C@@H]1O [digoxin] | – | – | extremely close | shorter | quite more rapid | not as completely absorbed | 50% to 70 | ~0.078 (≈ 99.9 µM) | about 78 mcg/ml

From patent US4021546A (priority 1976, dated 1977)
